Experiments:
Assay type in all cases: cell-based
WT DAT (YFP-HA-DAT) = biological target: T1, WT DAT (YFP-HA-DAT) (Homo sapiens, UniProt Q01959); experiment: Western blot of mature WT DAT protein levels; settings: overnight 100 μM
T1 construct: expressed in transfected cells; host or cells: HEK293
Description: (§1) Cells (1 × 10^6 cells/well) were seeded onto a 6-well plate and incubated for 24 h. Cells were then treated with drugs and incubated for 16 h. After the incubation period, cells were lysed in RIPA buffer supplemented with protease inhibitors (working concentrations: pepstatin A, 5 μg/mL; leupeptin, 10 μg/mL; aprotinin, 1.5 μg/mL; benzamidine, 0.1 μg/mL; PMSF, 0.1 mM) on ice. At 4°C, cell lysates were gently shaken for 15 min followed by centrifugation at 15,000 rpm for 15 min to pellet debris. The Pierce BCA protein assay kit (Thermo Fisher Scientific, Canada) was used to determine the protein concentration of the supernatant. To reach a concentration of 40 μg of protein per 20 μL, samples were diluted in fresh RIPA buffer with 12.5% Laemmli sample buffer and 2.5% β-Mercaptoethanol prior to being heated to 55°C. The protein was then loaded on a 7.5 or 10% SDS-PAGE gel and run at 100 V for approximately an hour or until the dye front reached the bottom of the gel. Next, protein was transferred to a PVDF membrane at 22 V for 16 h or 100 V for 1 h. Blots were blocked with LI-COR blocking buffer for 1 h and incubated for 1 h at room temperature with rabbit anti-GFP (1:1,000 dilution; Life Technologies, cat#A11122). After washing three times with TBST, blots were incubated with goat anti-rabbit IRDye-680RD secondary antibody (1:15,000; LI-COR, cat#926-68071). As a loading control, blots were incubated with mouse anti-GAPDH (1:5,000, Sigma-Aldrich, Canada, cat#G8795) prior to secondary antibody goat anti-mouse IRDye-800GR (1:5,000 dilution, Rockland, Limerick, PA, cat#610-132-007). All antibodies were diluted in LI-COR blocking buffer. Additionally, REVERT total protein staining (LI-COR, Lincoln, NE) was used as a loading control. […] Mature, fully glycosylated DAT (mDAT = 110 kDa) and immature, ER-resident DAT (iDAT = 75 kDa) were visualized using the Odyssey Imaging System (LI-COR, Lincoln, NE) and Image Studio Version 5.2 software (Supplementary Figure 1).
(§2) We next assessed whether drugs that increase DAT surface expression also increase total protein levels of DAT. Cells expressing YFP-HA-DAT were incubated with select test compounds and DAT protein levels were examined by western blot. The effects of the compounds were assessed on WT DAT and K590A DAT. The K590A mutant is a well-characterized ER-retained, trafficking-deficient DAT mutant ([Miranda et al., 2004]) that can be rescued by pharmacological chaperones ([Beerepoot et al., 2016]).
(§3) FIGURE 5 Effect of noribogaine, tetrahydroharmine, PAL-594, bicifadine, and RTI-20 on WT and K590A DAT expression. […] (B) Quantification of WT mDAT protein levels. […] (D) Quantification of K590A mDAT protein levels. […]

K590A DAT = biological target: T2, K590A DAT (Homo sapiens, UniProt Q01959, K590A); experiment: Western blot of mature K590A DAT protein levels; settings: overnight treatment
T2 construct: expressed in transfected cells; host or cells: HEK293
Description: as §1, §2, §3

DAT = biological target: T3, DAT (Homo sapiens, UniProt Q01959); experiment: Dopamine uptake inhibition dose response of hit compounds (Figure 6); settings: doses 1 nM to 100 μM, normalized to vehicle
T3 construct: expressed in transfected cells
Description: Dopamine uptake inhibition was conducted using the Neurotransmitter Transporter Uptake Assay Kit (Molecular Devices, prod#R8173). Cells (1 × 10^5/well) were seeded into 96-well plates and incubated for 24 h. The cells were subjected to overnight drug treatment. The following day, wells were washed and incubated for 30 min with a mixture of 1X Hank’s Balanced Salt Solution (HBSS) and 0.1% Bovine Serum Albumin (BSA) Buffer. Dopamine uptake inhibitors were added during the incubation period. Following the incubation, the fluorescent dye was added, and the plate was immediately transferred to the bottom-read fluorescence microplate reader (Spectramax M3, Molecular Devices) for kinetic read-mode. The assay reads the amount of fluorescent activity which increases as fluorescent dye molecules are transported into the cells by the DAT. The read-out for this assay is the slope which equals the fluorescent measurements/time, ultimately denoting the uptake rate.
Data analysis was performed using GraphPad Prism (GraphPad Software, La Jolla, CA). Linear regression analysis was performed on βLAC time points to determine the slope, thus the rate of reaction, for comparison. Furthermore, the slope was also used to determine the degree of dopamine uptake in the dopamine uptake assays. […]

T2 sequence (Q01959 whole entry K590A): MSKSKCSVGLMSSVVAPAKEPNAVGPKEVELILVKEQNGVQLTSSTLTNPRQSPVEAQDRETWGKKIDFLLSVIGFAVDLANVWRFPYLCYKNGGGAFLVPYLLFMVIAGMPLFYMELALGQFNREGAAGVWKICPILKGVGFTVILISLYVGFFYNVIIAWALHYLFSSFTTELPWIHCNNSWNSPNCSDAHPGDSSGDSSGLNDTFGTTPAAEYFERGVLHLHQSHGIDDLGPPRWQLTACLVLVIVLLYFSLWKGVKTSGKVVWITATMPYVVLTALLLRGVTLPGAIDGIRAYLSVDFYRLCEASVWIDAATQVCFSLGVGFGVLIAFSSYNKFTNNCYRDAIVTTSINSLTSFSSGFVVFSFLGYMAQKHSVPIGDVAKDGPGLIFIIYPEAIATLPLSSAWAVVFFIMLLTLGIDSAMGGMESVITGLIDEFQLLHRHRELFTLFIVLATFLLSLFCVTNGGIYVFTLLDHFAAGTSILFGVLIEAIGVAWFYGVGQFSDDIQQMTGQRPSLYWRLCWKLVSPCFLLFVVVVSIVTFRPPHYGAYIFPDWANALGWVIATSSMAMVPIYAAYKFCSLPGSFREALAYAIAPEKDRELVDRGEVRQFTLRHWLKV
T1 sequence (Q01959 whole entry): as the sequence (Q01959 whole entry K590A) above, with A590K counted along it
T3 sequence (Q01959 whole entry): as the sequence (Q01959 whole entry K590A) above, with A590K counted along it

Structure (SMILES): CCC1CC2CC3c4[nH]c5ccc(O)cc5c4CCN(C2)C13 (stereo not drawn) [Noribogaine, reference compound]
- mature WT DAT (mDAT) protein levels (WT DAT (YFP-HA-DAT)): significantly increase
- K590A DAT (mDAT) protein levels (K590A DAT): statistically significant effect
- maximal dopamine uptake inhibition (DAT): 76%
